Experimental data from the supplement of paper PMC11451515.

System: NOMO1
Assay: cell viability relative to DMSO control; higher = less cytotoxic
Conditions: 48 h
In short: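 Viability is a per-plate percentage relative to DMSO wells, with cell-free wells as background. CellTiter-Glo One luminescence was read after 48 h at 37°C on 1536-well plates (5 μl) of NOMO1 or SEM (500 cells/well) or P12-Ichikawa (1000 cells/well) leukemia cells. The cells had been adapted for at least four passages in each medium and pin-dosed with library compounds in DMSO from 47 μM to 0.79 nM in 11 threefold steps.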

[1] = HPLM + 10% dialyzed FBS, 0.000781 µM
[2] = HPLM + 10% dialyzed FBS, 0.00234 µM
[3] = HPLM + 10% dialyzed FBS, 0.00702 µM
[4] = HPLM + 10% dialyzed FBS, 0.0211 µM
[5] = HPLM + 10% dialyzed FBS, 0.0632 µM
[6] = HPLM + 10% dialyzed FBS, 0.19 µM
[7] = HPLM + 10% dialyzed FBS, 0.569 µM
[8] = HPLM + 10% dialyzed FBS, 1.71 µM
[9] = HPLM + 10% dialyzed FBS, 5.12 µM
[10] = HPLM + 10% dialyzed FBS, 15.4 µM
[11] = HPLM + 10% dialyzed FBS, 46.1 µM
[12] = RPMI 5 mM glucose + 10% FBS, 0.000781 µM
[13] = RPMI 5 mM glucose + 10% FBS, 0.00234 µM
[14] = RPMI 5 mM glucose + 10% FBS, 0.00702 µM
[15] = RPMI 5 mM glucose + 10% FBS, 0.0211 µM
[16] = RPMI 5 mM glucose + 10% FBS, 0.0632 µM
[17] = RPMI 5 mM glucose + 10% FBS, 0.19 µM
[18] = RPMI 5 mM glucose + 10% FBS, 0.569 µM
[19] = RPMI 5 mM glucose + 10% FBS, 1.71 µM
[20] = RPMI 5 mM glucose + 10% FBS, 5.12 µM
[21] = RPMI 5 mM glucose + 10% FBS, 15.4 µM
[22] = RPMI 5 mM glucose + 10% FBS, 46.1 µM
[23] = RPMI 5 mM glucose + 10% dialyzed FBS, 0.000781 µM
[24] = RPMI 5 mM glucose + 10% dialyzed FBS, 0.00234 µM
[25] = RPMI 5 mM glucose + 10% dialyzed FBS, 0.00702 µM
[26] = RPMI 5 mM glucose + 10% dialyzed FBS, 0.0211 µM
[27] = RPMI 5 mM glucose + 10% dialyzed FBS, 0.0632 µM
[28] = RPMI 5 mM glucose + 10% dialyzed FBS, 0.19 µM
[29] = RPMI 5 mM glucose + 10% dialyzed FBS, 0.569 µM
[30] = RPMI 5 mM glucose + 10% dialyzed FBS, 1.71 µM
[31] = RPMI 5 mM glucose + 10% dialyzed FBS, 5.12 µM
[32] = RPMI 5 mM glucose + 10% dialyzed FBS, 15.4 µM
[33] = RPMI 5 mM glucose + 10% dialyzed FBS, 46.1 µM

Structure (SMILES)	cell viability [1] [%]	cell viability [2] [%]	cell viability [3] [%]	cell viability [4] [%]	cell viability [5] [%]	cell viability [6] [%]	cell viability [7] [%]	cell viability [8] [%]	cell viability [9] [%]	cell viability [10] [%]	cell viability [11] [%]	cell viability [12] [%]	cell viability [13] [%]	cell viability [14] [%]	cell viability [15] [%]	cell viability [16] [%]	cell viability [17] [%]	cell viability [18] [%]	cell viability [19] [%]	cell viability [20] [%]	cell viability [21] [%]	cell viability [22] [%]	cell viability [23] [%]	cell viability [24] [%]	cell viability [25] [%]	cell viability [26] [%]	cell viability [27] [%]	cell viability [28] [%]	cell viability [29] [%]	cell viability [30] [%]	cell viability [31] [%]	cell viability [32] [%]	cell viability [33] [%]
NC(=O)c1ccc(I)c([N+](=O)[O-])c1	130	123	110	138	126	140	128	117	126	124	117	125	125	120	131	119	125	126	140	133	120	118	123	120	137	143	148	132	148	139	143	158	130
COc1ccc(C(C)=O)c(O)c1	115	114	109	121	111	93.7	98	45.9	41.4	23.9	26.2	116	111	119	118	116	127	112	56.6	64.8	20.1	22.6	111	115	105	105	124	129	123	75.6	59.9	25.7	24.2
NC/1=N/C2=C([NH]C=N2)C(=S)N1	107	121	121	133	131	115	122	137	126	145	35.1	111	119	123	119	113	115	117	120	109	101	27.6	–	–	–	–	–	–	–	–	–	–	–
CNC1CCC(N(Cc2cccc(-c3ccncc3)c2)C(=O)c2sc3c(F)ccc(F)c3c2Cl)CC1 (stereo unspecified)	92.9	111	121	123	127	106	111	113	100	97.8	36.5	95.3	108	100	106	118	105	117	105	99	104	81	87	99.2	104	115	112	99.7	110	100	100	108	57.4
